In brackets after ≈: the same amount, converted by molar mass.
What was measured:
[1] = tested on: PC-3; experiment: Anticancer activity against human PC3 cells after 72 hrs by crystal violet biomass reduction assay; type: functional, cell-based; conditions: PC-3, 72 h
[2] = tested on: MCF7; experiment: Anticancer activity against human MCF7 cells after 72 hrs by crystal violet biomass reduction assay; type: functional, cell-based; conditions: MCF7, 72 h
[3] = tested on: PC-3; experiment: Growth inhibition of human PC3 cells at 20 uM after 72 hrs by crystal violet biomass reduction assay; type: functional; conditions: PC-3, 72 h, read-out: GI
[4] = tested on: MCF7; experiment: Growth inhibition of human MCF7 cells at 20 uM after 72 hrs by crystal violet biomass reduction assay; type: functional; conditions: MCF7, 72 h, read-out: GI
[5] = tested on: P388; experiment: Cytotoxicity against mouse P388 cells; type: functional, cell-based

| Compound | IC50 [1] [nM] | IC50 [2] [nM] | inhibition of growth at 20 µM [3] [%] | inhibition of growth at 20 µM [4] [%] | IC50 [5] [µg/mL] |
| --- | --- | --- | --- | --- | --- |
| CCCCCCC[C@@H](CC(=O)N[C@H]1CCCCN(O)C1=O)OC(=O)[C@H](CCCCN(O)C=O)NC(=O)c1cccc(O)c1O | 7000 | 1000 | 63 | 81 |  |
| CCCCCCC[C@@H](CC(=O)N[C@H]1CCCCN(O)C1=O)OC(=O)[C@H](CCCCN(O)C=O)NC(=O)[C@H]1COC(c2ccccc2O)=N1 | 7500 | 3000 | 79 | 90 |  |
| CCCCCCC[C@H](OC(=O)[C@@H](CCCCN(O)C=O)NC(=O)c1nc(-c2cc(OC)ccc2O)oc1C)C(C)(C)C(=O)N[C@H]1CCCCN(O)C1=O [AMAMISTATIN A] |  |  |  |  | 0.015 (≈ 0.0201 µM) |
| CCCCCCC[C@H](OC(=O)[C@@H](CCCCN(O)C=O)NC(=O)c1nc(-c2ccccc2O)oc1C)C(C)(C)C(=O)N[C@H]1CCCCN(O)C1=O |  |  |  |  | 0.016 (≈ 0.0224 µM) |
| CCCCCCC[C@H](CC(=O)N[C@H]1CCCCN(O)C1=O)OC(=O)[C@H](CCCCN(O)C=O)NC(=O)c1cccc(O)c1O |  | 6000 | 40 | 86 |  |
| CCCCCCC[C@@H](CC(=O)N[C@H]1CCCCN(O)C1=O)NC(=O)[C@H](CCCCN(O)C=O)NC(=O)c1nc(-c2ccccc2O)oc1C | 14000 | 2000 | 68 | 95 |  |

Continued, in another order:

| IC50 [1] [nM] | IC50 [2] [nM] | Compound | inhibition of growth at 20 µM [3] [%] | inhibition of growth at 20 µM [4] [%] | IC50 [5] [µg/mL] |
| --- | --- | --- | --- | --- | --- |
| 3000 | 240 | CCCCCCC[C@H](CC(=O)N[C@H]1CCCCN(O)C1=O)OC(=O)[C@H](CCCCN(O)C=O)NC(=O)[C@@H]1COC(c2ccccc2O)=N1 | 83 | 87 |  |
| 3750 | 450 | CCCCCCC[C@H](CC(=O)N[C@H]1CCCCN(O)C1=O)OC(=O)[C@H](CCCCN(O)C=O)NC(=O)c1coc(-c2ccccc2O)n1 | 85 | 91 |  |
| 8000 | 320 | CCCCCCC[C@@H](CC(=O)N[C@H]1CCCCN(O)C1=O)OC(=O)[C@H](CCCCN(O)C=O)NC(=O)c1nc(-c2ccccc2O)oc1C | 62 | 91 |  |
| 2000 | 320 | CCCCCCC[C@H](CC(=O)N[C@H]1CCCCN(O)C1=O)OC(=O)[C@H](CCCCN(O)C=O)NC(=O)[C@H]1COC(c2ccccc2O)=N1 | 90 | 92 |  |
| 9000 | 800 | CCCCCCC[C@@H](CC(=O)N[C@H]1CCCCN(O)C1=O)OC(=O)[C@H](CCCCN(O)C=O)NC(=O)c1coc(-c2ccccc2O)n1 | 60 | 93 |  |
| 3000 | 500 | CCCCCCC[C@@H](CC(=O)N[C@H]1CCCCN(O)C1=O)OC(=O)[C@H](CCCCN(O)C=O)NC(=O)[C@@H]1COC(c2ccccc2O)=N1 | 79 | 89 |  |
| 9000 | 550 | CCCCCCC[C@H](CC(=O)N[C@H]1CCCCN(O)C1=O)NC(=O)[C@H](CCCCN(O)C=O)NC(=O)c1nc(-c2ccccc2O)oc1C | 72 | 96 |  |
| 4000 | 200 | CCCCCCC[C@H](CC(=O)N[C@H]1CCCCN(O)C1=O)OC(=O)[C@H](CCCCN(O)C=O)NC(=O)c1nc(-c2ccccc2O)oc1C | 72 | 94 |  |

From ChEMBL document CHEMBL1781934, “Syntheses and studies of amamistatin B analogs reveals that anticancer activity is relatively independent of stereochemistry, ester or amide linkage and select replacement of one of the metal chelating groups” (Bioorg Med Chem Lett, 2011)
